Test [1] concerns A-172 human glioblastoma cancer cells. Briefly: A-172 cell attachment to peptide coated surfaces (images and MTS assay). The format is cell-based. The note with it: A-172 cells, images and MTS assay (FIG. 4A and FIG. 4B); compared with BD BioCoat fibronectin surface. Here is the method: FIG. 4A is an image of A-172 human glioblastoma cancer cells attached to a surface that has a coating thereon of […] (SEQ ID NO: 8) referred to therein as “DA2”, […] (SEQ ID NO: 9) referred to therein as “DA4”, […] (SEQ ID NO: 10) referred to therein as “DA1”, […] (SEQ ID NO: 11) referred to therein as “DA3”.
To explore the ability of a surface modified by the compound of the present invention to mimic one or more functional characteristics of a fibronectin coated surface, cells were seeded and monitored on both such surfaces under the same culture conditions. In brief, LNCaP cells, MIA-PaCa-2, A-172, or RKO cells from ATCC were cultured according to supplier's instructions. LNCaP were cultured in RPMI-1640 Medium (ATCC Catalog No. 30-2001) supplemented with 10% fetal bovine serum. MIA-PaCa-2 and A-172 cells were grown in DMEM (Invitrogen cat #11885-084) supplemented with 10% fetal bovine serum. RKO cells were cultured in EMEM (ATCC cat#30-2003) supplemented with 10% fetal bovine serum. Cells were cultured at 37° C. in a humidified incubator with 5% CO2. For seeding, media was removed, cells were washed with PBS, and 3 ml of 0.25% Trypsin-EDTA was added to the cells in T-75 flask. Flasks were examined under the microscope, once cells detached from the surface, 10 ml culture media was added to neutralize Trypsin. Cells were transferred to a 15 ml. BD Falcon tube and centrifuged at 200×g for 10 min. Supernatant was removed and the cell pellet washed once with DMEM (Invitrogen cat #11885-084) having 200 microgram/ml BSA. Cells were resuspended in DMEM having 200 microgram/ml BSA and seeded at 50,000 cells/cm^2 in 1.0 ml media per well of a 24 well plate. The culture surface was either a surface modified by the compound […] (SEQ ID NO: 7) or BD BioCoat fibronectin which served as a positive control. Additionally, BD tissue culture treated surface served as negative control. Cells were incubated for 24 hr at 37° C. in a humidified incubator with 5% CO2.
In addition to the aforementioned visual analysis, MTS analysis was carried out to quantify the degree of cell attachment. In brief, media was removed by inverting the plate and 300 μl complete media containing MTS (Promega cat #G3582) was added to each well of a 24 well plate. Cells were incubated for 1 hr at 37° C. in a humidified incubator at 5% CO2. Following incubation, 0.1 ml media was transferred to BD Falcon™ 96 well plate and absorbance was measured at 490 nm.
(In general: Tetrazolium dyes change colour on reduction, which living cells bring about.)

In a further test the test system is RKO cells. Briefly: Confluence quantification by IncuCyte of RKO cell attachment. The format is cell-based, human. The note with it: FIG. 3, treated surface vs BD BioCoat fibronectin. How it is done:
(§1) To explore the ability of a surface modified by the compound of the present invention to mimic one or more functional characteristics of a fibronectin coated surface, cells were seeded and monitored on both such surfaces under the same culture conditions. In brief, LNCaP cells, MIA-PaCa-2, A-172, or RKO cells from ATCC were cultured according to supplier's instructions. LNCaP were cultured in RPMI-1640 Medium (ATCC Catalog No. 30-2001) supplemented with 10% fetal bovine serum. MIA-PaCa-2 and A-172 cells were grown in DMEM (Invitrogen cat #11885-084) supplemented with 10% fetal bovine serum. RKO cells were cultured in EMEM (ATCC cat#30-2003) supplemented with 10% fetal bovine serum. Cells were cultured at 37° C. in a humidified incubator with 5% CO2. For seeding, media was removed, cells were washed with PBS, and 3 ml of 0.25% Trypsin-EDTA was added to the cells in T-75 flask. Flasks were examined under the microscope, once cells detached from the surface, 10 ml culture media was added to neutralize Trypsin. Cells were transferred to a 15 ml. BD Falcon tube and centrifuged at 200×g for 10 min. Supernatant was removed and the cell pellet washed once with DMEM (Invitrogen cat #11885-084) having 200 microgram/ml BSA. Cells were resuspended in DMEM having 200 microgram/ml BSA and seeded at 50,000 cells/cm^2 in 1.0 ml media per well of a 24 well plate. […]

The subject of a further test is A-172 cells. Briefly: Confluence quantification by IncuCyte of A-172 cell attachment. The note with it: FIG. 3, treated surface vs BD BioCoat fibronectin. The class given is cell-based, human. Here is the method: as §1
For test [2], the system named is LNCaP cells. Briefly: LNCaP cell attachment and spreading on modified surface, visualized by microscope. The class given is cell-based, human. The settings on record: 24 hr post-seeding, microscope images (FIG. 1), surface modified by compound vs BD BioCoat fibronectin. Here is the method:
as §1

Test [3] relates to LNCaP cells. Briefly: MTS assay quantification of LNCaP cell attachment. The note with it: 24 hr post-seeding, FIG. 2, treated surface vs BD BioCoat fibronectin. The class given is cell-based, human. Here is the method: as §1, with “min.” for “min. Supernatant was removed and the cell pellet washed once with DMEM (Invitrogen cat #11885-084) having 200 microgram/ml BSA. Cells were resuspended in DMEM having 200 microgram/ml BSA and seeded at 50,000 cells/cm^2 in 1.0 ml media per well of a 24 well plate.”
In addition to the aforementioned visual analysis, MTS analysis was carried out to quantify the degree of cell attachment. […] Following incubation, 0.1 ml media was transferred to BD Falcon™ 96 well plate and absorbance was measured at 490 nm.

Regarding “KSGRPREDRVPHSRNSITLTNSGTGSGTGSGRGDSP (two regions of a fibronectin cell-binding domain joined by a flexible linker) [SEQ ID NO: 8]”, the “cell attachment and spreading” value in test [1] is “supported cell attachment and spreading similar to a BD BioCoat fibronectin surface”.
With “KSGRPREDRVPHSRNSITLTNSGSGSGSGSGRGDSP (two regions of a fibronectin cell-binding domain joined by a flexible linker) [SEQ ID NO: 7]”, the “cell attachment and spreading” value is “supported cell attachment and spreading similar to a BD BioCoat fibronectin surface” in test [1]; “comparable” in the test on LNCaP cells [2]. Further, the “confluence quantification by IncuCyte” value in the test with RKO cells and in the test with A-172 cells was “comparable” each time. Besides, the “LNCaP cell attachment (MTS assay, absorbance at 490 nm)” value in the test with LNCaP cells [3] is listed as “comparable”.
In the case of “KSGRPREDRVPHSRNSITLTNGGGSGGGSGGGRGDSP (two regions of a fibronectin cell-binding domain joined by a flexible linker) [SEQ ID NO: 9]”, the “cell attachment and spreading” value in test [1] is “supported cell attachment and spreading similar to a BD BioCoat fibronectin surface”.
Take “KSGRARADRVPHSRNTITLTNSGSGSGSGSGRGDSP (two regions of a fibronectin cell-binding domain joined by a flexible linker) [SEQ ID NO: 10]”: in test [1], the “cell attachment and spreading” value is “supported cell attachment and spreading similar to a BD BioCoat fibronectin surface”.
For the sequence “KSGRGRGDRVPHSRNGITLTNSGSGSGSGSGRGDSP (two regions of a fibronectin cell-binding domain joined by a flexible linker) [SEQ ID NO: 12]”, the “cell attachment and spreading” value in test [1] was “supported cell attachment and spreading similar to a BD BioCoat fibronectin surface”.
Turning to “KSGRARADRVPHSRNTITLTNGGSGGSGGSGRGDSP (two regions of a fibronectin cell-binding domain joined by a flexible linker) [SEQ ID NO: 11]”, the “cell attachment and spreading” value in test [1] is “supported cell attachment and spreading similar to a BD BioCoat fibronectin surface”.

For the origin of these results see patent US8921516B2, “Synthetic, defined fibronectin mimetic peptides and surfaces modified with the same” (Corning Incorporated, priority 2010, dated 2014).
